Data on one molecule can be found in ChEMBL document CHEMBL3886188, “Identification of human T2R receptors that respond to bitter compounds that elicit the bitter taste in compositions, and the use thereof in assays to identify compounds that inhibit (block) bitter taste in compositions and use thereof” (2016).

This experiment concerns the target T1, Taste receptor type 2 member 8 (Homo sapiens, UniProt Q9NYW2).
T1 sequence (Q9NYW2 whole entry): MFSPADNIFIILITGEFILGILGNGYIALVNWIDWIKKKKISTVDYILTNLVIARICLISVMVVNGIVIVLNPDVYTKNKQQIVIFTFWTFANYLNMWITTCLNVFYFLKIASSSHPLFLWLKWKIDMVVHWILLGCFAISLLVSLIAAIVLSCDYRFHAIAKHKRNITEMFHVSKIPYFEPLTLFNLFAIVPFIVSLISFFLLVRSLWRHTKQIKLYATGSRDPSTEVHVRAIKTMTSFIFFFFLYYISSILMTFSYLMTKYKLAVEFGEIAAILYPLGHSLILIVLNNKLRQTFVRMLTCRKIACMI
In words: Fluorescence Polarization Assays: In another embodiment, Fluorescence Polarization ("FP") based assays may be used to detect and monitor ligand binding. Fluorescence polarization is a versatile laboratory technique for measuring equilibrium binding, nucleic acid hybridization, and enzymatic activity. […] Generally, this technique can be used to measure polarization values of fluorophores from low picomolar to micromolar levels. On the technique in general: Polarisation of emitted light reports the rotation of a fluorescent probe.

What is called IC50 is the midpoint of a concentration-inhibition curve. A higher IC50 goes with lower potency. Turning to `Cc1noc(C)c1Cn1cc(N2CCCN(Cc3ccccc3)C2=O)cn1`, the IC50 was 1.65 µM.
